Target: T1, BRD4 (Homo sapiens, UniProt O60885)
T1 construct: endogenously expressing BRD4 with HiBiT fusion tag via CRISPR; endogenous in cells; host or cells: 293T.92 (BRD4-HiBiT) cells, a CRISPR knock-in made from 293T
Test: BRD4 HiBiT degradation assay in 293T.92 (BRD4-HiBiT) cells
Format: cell-based
Conditions: 293T.92 cells, 24.0 hours
From the text: Example 3: BRD4 HiBiT Method
Dulbecco's modified Eagle medium (DMEM) without phenol red and fetal bovine serum (FBS) were purchased from Gibco (Grand Island, NY, USA). Nano-Glo® HiBiT Lytic Assay System was purchased from Promega (Madison, WI, USA). 293T.92 (BRD4-HiBiT) cell line, endogenously expressing BRD4 with HiBiT fusion tag via CRISPR was made internally from the 293T human cell line acquired from American Type Culture Collection (Rockville, MD, USA). Cell culture flasks and 384-well microplates were acquired from VWR (Radnor, PA, USA) or Corning (Corning, NY, USA).
BRD4 degradation was determined based on quantification of luminescent signal using Nano-Glo® HiBiT Lytic Assay kit. Test compounds were added to the 384-well plate from a top concentration of […] with 11 points, half log titration in duplicates. 293T.92 cells were added into 384-well plates at a cell density of 15000 cells per well. The plates were kept at 37° C. with 5% CO2 for […]. The cells treated in the absence of the test compound were the negative control and the cells without Nano-Glo® HiBiT Lytic reagent were the positive control. After 24-hour incubation, Nano-Glo® HiBiT Lytic Assay reagents were added to the cells. Luminescence was acquired on EnVision™ Multilabel Reader (PerkinElmer, Santa Clara, CA, USA).

SMILES: COC(=O)N1c2ccc3c(nc(Cc4ccccc4)n3[C@H]3CCC[C@H](C(=O)N4CCC(c5ccc6c(c5)OCCN6C5CCC(=O)NC5=O)CC4)C3)c2CC[C@@H]1C (stereo partly drawn) [Compound 32-14, methyl (7S)-2-benzyl-7-methyl-3-[(1S,3S)-3-[4-[4-(2,6-dioxo-3-piperidyl)-2,3-dihydro-1,4-benzoxazin-7-yl]piperidine-i-carbonyl]cyclohexyl]-8,9-dihydro-7H-imidazo[4,5-f]quinoline-6-carboxylate]
- DC50: < 1 µM
- Emax: < 30%

From US12421220B2, “Bicyclic-substituted glutarimide cereblon binders” (C4 THERAPEUTICS, INC., priority 2022, dated 2025)
